Broadly, the IC50 is the concentration that gives 50% inhibition.

Structures are written as SMILES.

phosphorylated active hERK2 enzyme, sequence (P28482 whole entry): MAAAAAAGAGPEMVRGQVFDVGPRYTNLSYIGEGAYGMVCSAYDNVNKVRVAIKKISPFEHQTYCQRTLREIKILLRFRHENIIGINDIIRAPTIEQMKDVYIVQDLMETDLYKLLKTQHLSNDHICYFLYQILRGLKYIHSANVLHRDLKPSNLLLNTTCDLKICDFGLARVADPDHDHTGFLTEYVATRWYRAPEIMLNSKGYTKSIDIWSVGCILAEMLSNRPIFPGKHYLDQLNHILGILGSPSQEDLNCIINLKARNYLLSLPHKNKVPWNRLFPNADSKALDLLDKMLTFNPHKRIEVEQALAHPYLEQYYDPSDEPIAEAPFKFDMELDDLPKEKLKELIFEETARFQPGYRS

One experiment has as its target phosphorylated active hERK2 enzyme (Homo sapiens (Human), UniProt P28482).
Details: not given
As to `Cc1cc(-n2ncc3cc(NC(=O)N[C@H]4CCCC[C@H]4Cc4ccccc4)ncc32)ccn1` (racemic) [Example 167, Racemic cis 1-[(1S,2S) and (1R,2R)-2-benzylcyclohexyl]-3-[1-(2-methylpyridin-4-yl)-1H-pyrazolo[3,4-c]pyridin-5-yl)urea], the IC50 was 23.1 nM.

Still in this experiment, the particulars now being: read-out: ERK2 IC50; IMAP-FP assay; 0.5 nM hERK2, 30 μM ATP; 10 point titration, 3 μM starting concentration.
Consider `Cc1cc(-n2ncc3cc(NC(=O)N[C@H]4COC[C@@H]4c4ccccc4)ncc32)ccn1` [Example 17, 1-[1-(2-methylpyridin-4-yl)-1H-pyrazolo[3,4-c]pyridin-5-yl]-3-[(3R,4R)-4-phenyltetrahydrofuran-3-yl]urea], for which the IC50 turned out to be 1.83 nM.

Take `Cn1cc(-n2ncc3cc(NC(=O)NCc4cccc(Cl)c4)ncc32)cn1` [Example 216, 1-(3-chlorobenzyl)-3-[1-(1-methyl-1H-pyrazol-4-yl)-1H-pyrazolo[3,4-c]pyridin-5-yl]urea]: the IC50 worked out at 15.7 nM.

On to `Cc1cnc(-n2ncc3cc(NC(=O)N[C@H](C)c4ccccc4)ncc32)cn1` [Example 212, 1-[1-(5-methylpyrazin-2-yl)-1H-pyrazolo[3,4-c]pyridin-5-yl]-3-[(1R)-1-phenylethyl]urea], for which the IC50 amounted to 521 nM.

On to `Cc1cc(-n2ncc3cc(NC(=O)NC4CCN(c5ccccc5)CC4)ncc32)ccn1` [Example 78, 1-[1-(2-methylpyridin-4-yl)-1H-pyrazolo[3,4-c]pyridin-5-yl]-3-(1-phenylpiperidin-4-yl)urea], for which the IC50 is 1740 nM.

For `Cc1cc(-n2ncc3cc(NC(=O)N[C@@H]4CN(C(C)C)C[C@H]4c4ccccc4)ncc32)ccn1` [Example 197, 1-[(3S,4R)-1-(1-methyl-ethyl)-4-phenylpyrrolidin-3-yl]-3-[1-(2-methylpyridin-4-yl)-1H-pyrazolo[3,4-c]-pyridin-5-yl]urea], the IC50 was 60.8 nM.

Take `COC[C@@H](NC(=O)Nc1cc2cnn(Cc3ccncc3)c2cn1)c1ccccc1` [Example 260, 1-[(1S)-2-methoxy-1-phenylethyl]-3-[1-(pyridin-4-ylmethyl)-1H-pyrazolo[3,4-c]pyridin-5-yl]urea]: the IC50 stood at 30.9 nM.

On to `C=CC(=O)NCc1nc(NC(=O)N[C@H](C)c2ccccc2)cc2cnn(C)c12` [Example 324, N-{[1-Methyl-5-({[(1R)-1-phenylethyl]carbamoyl}amino)-1H-pyrazolo[3,4-c]pyridin-7-yl]methyl}prop-2-enamide], for which the IC50 turned out to be 432 nM.

As for `CO[C@H]1CN(C)C[C@@H]1NC(=O)Nc1cc2cnn(-c3ccnc(C)c3)c2cn1` [Example 291, 1-[(3S,4S)-4-methoxy-1-methylpyrrolidin-3-yl]-3-[1-(2-methylpyridin-4-yl)-1H-pyrazolo[3,4-c]pyridin-5-yl]urea], the IC50 was determined as 46.4 nM.

Turning to `Cc1cc(-n2ncc3cc(NC(=O)N[C@H]4CCC[C@@H]4OCc4ccccc4)ncc32)ccn1` [Example 154, 1-[(1S,2S)-2-(benzyloxy)cyclopentyl]-3-[1-(2-methylpyridin-4-yl)-1H-pyrazolo[3,4-c]pyridin-5-yl]urea], the IC50 is 7.51 nM.

Regarding `Cc1cc(-n2ncc3cc(NC(=O)NC4CC(=O)Nc5ccccc54)ncc32)ccn1` (centres unmarked) [Example 80, 1-[1-(2-methylpyridin-4-yl)-1H-pyrazolo[3,4-c]pyridin-5-yl]-3-(2-oxo-1,2,3,4-tetrahydroquinolin-4-yl)urea], the IC50 was 196 nM.

As to `Cc1cc(-n2ncc3cc(NC(=O)NCc4cccc(Cl)c4)ncc32)ccn1` [Example 215, 1-(3-chlorobenzyl)-3-[1-(2-methylpyridin-4-yl)-1H-pyrazolo[3,4-c]pyridin-5-yl]urea], the IC50 was 5.04 nM.

For `COCCCn1ncc2cc(NC(=O)N[C@H](C)c3ccccc3)ncc21` [Example 235, 1-[1-(3-methoxypropyl)-1H-pyrazolo[3,4-c]pyridin-5-yl]-3-[(1R)-1-phenylethyl]urea], the IC50 is 1520 nM.

With `Cc1cc(-n2ncc3cc(NC(=O)N[C@@H]4[C@@H](c5ccccc5)CN(C)C45COC5)ncc32)ccn1` [Example 184, 1-[(7S,8R)-5-methyl-7-phenyl-2-oxa-5-azaspiro[3.4]oct-8-yl]-3-[1-(2-methylpyridin-4-yl)-1H-pyrazolo[3,4-c]pyridin-5-yl]urea], the IC50 came to 873 nM.

As to `CCNC(=O)n1ncc2cc(NC(=O)N[C@H](C)c3ccccc3)ncc21` [Example 231, N-ethyl-5-({[(1R)-1-phenylethyl]carbamoyl}amino)-1H-pyrazolo[3,4-c]pyridine-1-carboxamide], the IC50 amounted to 64.1 nM.

On to `Cc1cc(-n2ncc3cc(NC(=O)NC4CCCN(Cc5c(F)cccc5F)C4)ncc32)ccn1` (centres unmarked) [Example 266, 1-[1-(2,6-difluorobenzyl)piperidin-3-yl]-3-[1-(2-methylpyridin-4-yl)-1H-pyrazolo[3,4-c]pyridin-5-yl]urea], for which the IC50 came out at 2.78 nM.

With `C[C@@H](NC(=O)Nc1cc2cnn(-c3ccc(F)cc3)c2c(CO)n1)c1ccccc1` [Example 240, 1-[1-(4-fluorophenyl)-7-(hydroxymethyl)-1H-pyrazolo[3,4-c]pyridin-5-yl]-3-[(1R)-1-phenylethyl]urea], the IC50 was found to be 40.1 nM.

In the case of `COCCNCc1nc(NC(=O)N[C@H](C)c2ccccc2)cc2cnn(-c3ccc(F)cc3)c12` [Example 318, 1-[1-(4-Fluorophenyl)-7-{[(2-methoxyethyl)amino]methyl}-1H-pyrazolo[3,4-c]pyridin-5-yl]-3-[(1R)-1-phenylethyl]urea], the IC50 was 141 nM.

Consider `COCc1nc(NC(=O)N[C@H](C)c2ccccc2)cc2cnn(-c3ccc(F)cc3)c12` [Example 241, 1-[1-(4-fluorophenyl)-7-(methoxymethyl)-1H-pyrazolo[3,4-c]pyridin-5-yl]-3-[(1R)-1-phenylethyl]urea], for which the IC50 worked out at 55.9 nM.

As to `CC(C)(O)[C@@H](NC(=O)Nc1cc2cnn(-c3ccc(F)cc3)c2cn1)c1ccccc1` [Example 296, 1-[1-(4-fluorophenyl)-1H-pyrazolo[3,4-c]pyridin-5-yl]-3-[(1S)-2-hydroxy-2-methyl-1-phenylpropyl]urea], the IC50 was 0.812 nM.

Take `Cc1cc(-n2ncc3cc(NC(=O)N[C@H](COC(C)C)c4ccccc4)ncc32)ccn1` [Example 135, 1-[(1S)-2-(1-methylethoxy)-1-phenylethyl]-3-[1-(2-methylpyridin-4-yl)-1H-pyrazolo[3,4-c]pyridin-5-yl]urea]: the IC50 was 0.786 nM.

On to `Cc1cc(-n2ncc3cc(NC(=O)NCc4cccc(-n5cccn5)c4)ncc32)ccn1` [Example 75], for which the IC50 was determined as 5.28 nM.

As for `Cc1cc(-n2ncc3cc(NC(=O)NCc4cccc(-c5ccon5)c4)ncc32)ccn1` [Example 98, 1-(3-isoxazol-3-ylbenzyl)-3-[1-(2-methylpyridin-4-yl)-1H-pyrazolo[3,4-c]pyridin-5-yl]urea], the IC50 amounted to 1.68 nM.

As for `Cc1cc(-n2ncc3cc(NC(=O)NCCN4CCOCC4)ncc32)ccn1` [Example 109, 1-[1-(2-methylpyridin-4-yl)-1H-pyrazolo[3,4-c]pyridin-5-yl]-3-(2-morpholin-4-ylethyl)urea], the IC50 amounted to 627 nM.

In the case of `CCN1CC[C@@H](NC(=O)Nc2cc3cnn(-c4ccnc(C)c4)c3cn2)C1` [Example 28, 1-[(3R)-1-ethylpyrrolidin-3-yl]-3-[1-(2-methylpyridin-4-yl)-1H-pyrazolo[3,4-c]pyridin-5-yl]urea], the IC50 stood at 104 nM.

Turning to `CO[C@H]1CN(C)C[C@@H]1NC(=O)Nc1cc2cnn(-c3ccnc(C)c3)c2cn1` [Example 193, 1-[(3S,4S)-4-methoxy-1-methylpyrrolidin-3-yl]-3-[1-(2-methylpyridin-4-yl)-1H-pyrazolo[3,4-c]pyridin-5-yl]urea], the IC50 worked out at 2530 nM.

As to `Cc1cc(-n2ncc3cc(NC(=O)N[C@H](CCO)c4ccccc4)ncc32)ccn1` [Example 89, 1-[(1R)-3-hydroxy-1-phenylpropyl]-3-[1-(2-methylpyridin-4-yl)-1H-pyrazolo[3,4-c]pyridin-5-yl)urea], the IC50 was 0.821 nM.

Consider `CC(=O)N[C@H]1CCCC[C@@H]1NC(=O)Nc1cc2cnn(-c3ccnc(C)c3)c2cn1` [Example 139, N-[(1S,2S)-2-({[1-(2-methylpyridin-4-yl)-1H-pyrazolo[3,4-c]pyridin-5-yl]carbamoyl}amino)cyclohexyl] acetamide], for which the IC50 is 2160 nM.

For the compound `CO[C@@H]1CN(Cc2cccnc2)C[C@H]1NC(=O)Nc1cc2cnn(-c3ccnc(C)c3)c2cn1` [Example 262, 1-((3R,4R)-4-methoxy-1-(pyridin-3-ylmethyl)pyrrolidin-3-yl)-3-(1-(2-methylpyridin-4-yl)-1H-pyrazolo[3,4-c]pyridin-5-yl)urea], the IC50 is 253 nM.

Consider `Cc1cc(-n2ncc3cc(NC(=O)N[C@H]4CN(C)C[C@@H]4CCCc4ccccc4)ncc32)ccn1` [Example 149, 1-[(3R,4S)-1-methyl-4-(3-phenylpropyl)pyrrolidin-3-yl]-3-[1-(2-methylpyridin-4-yl)-1H-pyrazolo[3,4-c]pyridin-5-yl]urea], for which the IC50 stood at 1.18 nM.

As to `Cc1cc(-n2ncc3cc(NC(=O)N[C@H](CN(C)C)c4ccccc4)ncc32)ccn1` [Example 130, 1-[(1S)-2-(dimethylamino)-1-phenylethyl]-3-[1-(2-methylpyridin-4-yl)-1H-pyrazolo[3,4-c]pyridin-5-yl)urea], the IC50 came out at 123 nM.

For the compound `CCNC(=O)[C@@H](NC(=O)Nc1cc2cnn(-c3ccnc(C)c3)c2cn1)c1ccccc1` [Example 141, (2S)-N-ethyl-2-({[1-(2-methylpyridin-4-yl)-1H-pyrazolo[3,4-c]pyridin-5-yl]carbamoyl}amino)-2-phenylethanamide], the IC50 is 2.58 nM.

In the case of `CCn1ncc2cc(NC(=O)N[C@H](C)c3ccccc3)nc(CO)c21` [Example 299, 1-[1-Ethyl-7-(hydroxymethyl)-1H-pyrazolo[3,4-c]pyridin-5-yl]-3-[(1R)-1-phenylethyl]urea], the IC50 worked out at 18.1 nM.

In the case of `O=C(NCc1ccc(Cl)cc1Cl)Nc1cc2cnn(-c3ccncc3)c2cn1` [Example 11, 1-(2,4-dichlorobenzyl)-3-(1-pyridin-4-yl-1H-pyrazolo[3,4-c]pyridin-5-yl)urea], the IC50 stood at 26 nM.

Take `CC(C)n1ncc2cc(NC(=O)N[C@H](C)c3ccccc3)nc(CO)c21` [Example 302, 1-[7-(hydroxymethyl)-1-(1-methylethyl)-1H-pyrazolo[3,4-c]pyridin-5-yl]-3-[(1R)-1-phenylethyl]urea]: the IC50 was determined as 62.2 nM.

For the origin of these results see patent US9884048B2, “ERK inhibitors” (Merck Sharp & Dohme Corp., priority 2014, dated 2018).
